# From paper PMC5608406, “In vivo activation of latent HIV with a synthetic bryostatin analog effects both latent cell "kick" and "kill" in strategy for virus eradication” (PLoS Pathogens, 2017)
# Legend:
# [1] = molecular target: T1, PKC theta (Homo sapiens, UniProt Q04759); test: PKC binding assay, competition with 3H-PDBu
# T1 construct: purchased Invitrogen
# Protocol: (§1) This entails a glass-fiber filtration method to determine bound radioligand.
# (§2) To a polypropylene vial was added Tris-HCl (pH 7.4, 1 M, 1 mL), KCl (1 M, 2 mL), CaCl2 (0.1 M, 30 μL), and bovine serum albumin (40 mg, from Sigma). This mixture was diluted to 20 mL with deionized H2O, and mixed gently. The buffer was stored on ice until use. The final concentration of these constituents are shown in S2 Table.
# (§3) For every 2 assays, 3.5 mg phosphatidylserine (Avanti Polar Lipids, porcine, obtained as a solution in CHCl3) was isolated by removing chloroform under a stream of nitrogen followed by reduced pressure. The solid PS was suspended as vesicles in binding assay buffer (3.5 mL) by sonicating (Branson Sonifier 250, power = 2, 50% duty cycle) six times for 30 s with a 30 s rest between sonications. The resulting cloudy mixture (1 mg/mL PS) was stored on ice until use.
# (§4) Assay Protein Kinase C (PKC) was prepared by dissolving a 4 μg aliquot of the indicated recombinant human PKC isoform (Invitrogen) into 11.6 mL of binding assay buffer. The KD values for all 7 isoforms were determined experimentally. The diluted PKC was stored on ice for immediate use. This amount is sufficient for 2 assays with room for error.
# (§5) This 500 nM stock solution was further diluted in DMSO to 30 nM for use in assays. The 500 nM and 30 nM stock solutions were stored frozen in DMSO at −20°C until use. […] Seven analog concentrations were used to define the inhibition curve.
# (§6) The resulting solution was vortexed to mix and stored on ice.
# (§7) Triplicate data points were obtained for each analog concentration. For each data point, 280 μL of Master Mix Solution and test compound at the given concentration (20 μL) were added to a polypropylene tube. […] Counts per minute (cpm) were averaged for each triplicate dilution.
# [2] = molecular target: T2, PKC epsilon (Homo sapiens, UniProt Q02156); test: PKC binding assay, competition with 3H-PDBu
# T2 construct: purchased Invitrogen
# T2 sequence (Q02156 1-737): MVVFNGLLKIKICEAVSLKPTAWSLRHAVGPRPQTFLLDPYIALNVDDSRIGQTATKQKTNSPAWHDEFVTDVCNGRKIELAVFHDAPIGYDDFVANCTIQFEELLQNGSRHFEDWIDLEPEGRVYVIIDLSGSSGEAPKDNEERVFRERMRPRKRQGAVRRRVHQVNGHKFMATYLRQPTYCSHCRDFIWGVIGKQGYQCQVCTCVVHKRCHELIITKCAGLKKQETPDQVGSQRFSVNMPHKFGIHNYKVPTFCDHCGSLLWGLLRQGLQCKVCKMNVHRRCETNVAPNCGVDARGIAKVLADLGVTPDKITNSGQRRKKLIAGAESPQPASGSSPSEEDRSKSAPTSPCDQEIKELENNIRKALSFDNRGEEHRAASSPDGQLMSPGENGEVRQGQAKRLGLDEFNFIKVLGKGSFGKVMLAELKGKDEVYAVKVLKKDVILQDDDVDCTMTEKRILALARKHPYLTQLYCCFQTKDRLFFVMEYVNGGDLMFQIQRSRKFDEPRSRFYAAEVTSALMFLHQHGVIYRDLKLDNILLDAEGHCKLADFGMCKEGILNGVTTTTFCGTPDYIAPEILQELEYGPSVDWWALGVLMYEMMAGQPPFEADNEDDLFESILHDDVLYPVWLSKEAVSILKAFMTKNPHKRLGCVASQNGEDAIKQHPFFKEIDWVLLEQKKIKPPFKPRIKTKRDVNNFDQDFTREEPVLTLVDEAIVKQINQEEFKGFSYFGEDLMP
# Protocol: as §1, §2, §3, §4, §5, §6, §7
# [3] = molecular target: T3, PKC gamma (Homo sapiens, UniProt P05129); test: PKC binding assay, competition with 3H-PDBu
# T3 construct: purchased Invitrogen
# Protocol: as §1, §2, §3, §4, §5, §6, §7
# [4] = molecular target: T4, PKC alpha (Homo sapiens, UniProt P17252); test: PKC binding assay, competition with 3H-PDBu
# T4 construct: purchased Invitrogen
# Protocol: as §1, §2, §3, §4, §5, §6, §7
# [5] = molecular target: T5, PKC delta (Homo sapiens, UniProt Q05655); test: PKC binding assay, competition with 3H-PDBu
# T5 construct: purchased Invitrogen
# Protocol: as §1, §2, §3, §4, §5, §6, §7
# [6] = molecular target: T6, PKC eta (Homo sapiens, UniProt P24723); test: PKC binding assay, competition with 3H-PDBu
# T6 construct: purchased Invitrogen
# Protocol: as §1, §2, §3, §4, §5, §6, §7
# [7] = molecular target: T7, PKC beta I (Homo sapiens, UniProt P05771); test: PKC binding assay, competition with 3H-PDBu
# T7 construct: purchased Invitrogen
# Protocol: as §1, §2, §3, §4, §5, §6, §7
# [8] = tested on: primary CD4+ T cells; test: Induction of CD69 expression in primary CD4+ T cells; format: cell-based, human; conditions: 24h
# Protocol: Primary human cells from HIV seronegative individuals were cultured in “RF10 medium” consisting of RPMI 1640 medium supplemented with 10% fetal bovine serum (FBS, Omega Scientific), 100 U/mL of penicillin, and 100 μg/mL of streptomycin (Invitrogen). PBMCs were isolated using Ficoll-Paque Plus separation (GE Healthcare). Primary CD4+ T cells were separated from PBMCs by negative immunomagnetic selection using the CD4+ T cell Isolation Kit (Miltenyi Biotec) according to the manufacturer’s instructions. Cells were then exposed to compound for 24 hours before staining and flow cytometric analysis of CD69 levels. Compound incubations were performed by seeding 10^5 cells/well in 100 μL of RF10 media containing the appropriate concentration of compound in wells of a v-bottomed 96-well plate. Bryostatin 1 (Tocris bioscience) and Prostratin (LC Laboratories) were obtained commercially, and bryologs or prostratin analogs were synthesized as previously described.
# For human PBMC CD69 induction experiments, cells were stained with CD69-ECD (Beckman Coulter 6607110). During staining, cells were incubated at 4 °C for 20 minutes, washed with 2% FBS in PBS, and then resuspended in 2% paraformaldehyde. Stained samples were stored at 4 °C.
# Flow cytometry samples were analyzed using a Cytomics FC 500 (Beckman Coulter) or a LSR Fortessa (BD Biosciences) flow cytometer. Data were analyzed using FlowJo (v7) software.
# T5 sequence (Q05655 whole entry): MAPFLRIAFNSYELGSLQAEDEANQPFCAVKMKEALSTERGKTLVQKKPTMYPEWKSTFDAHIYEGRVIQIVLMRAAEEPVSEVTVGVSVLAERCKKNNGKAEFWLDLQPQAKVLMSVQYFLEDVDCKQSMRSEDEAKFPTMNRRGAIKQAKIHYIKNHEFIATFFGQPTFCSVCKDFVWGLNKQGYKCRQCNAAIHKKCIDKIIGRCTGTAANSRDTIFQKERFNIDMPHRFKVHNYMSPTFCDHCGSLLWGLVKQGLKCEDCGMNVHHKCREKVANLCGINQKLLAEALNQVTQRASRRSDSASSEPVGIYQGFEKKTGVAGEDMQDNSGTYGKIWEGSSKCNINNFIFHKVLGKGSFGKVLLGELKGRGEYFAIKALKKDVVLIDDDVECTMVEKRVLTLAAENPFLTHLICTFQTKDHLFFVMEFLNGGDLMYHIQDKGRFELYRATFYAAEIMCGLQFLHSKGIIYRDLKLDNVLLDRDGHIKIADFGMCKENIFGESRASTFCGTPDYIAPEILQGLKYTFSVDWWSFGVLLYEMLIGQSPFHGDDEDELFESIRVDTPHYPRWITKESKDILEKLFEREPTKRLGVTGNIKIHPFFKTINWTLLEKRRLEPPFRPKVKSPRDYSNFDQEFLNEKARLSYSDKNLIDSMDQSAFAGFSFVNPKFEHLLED
# T7 sequence (P05771 whole entry): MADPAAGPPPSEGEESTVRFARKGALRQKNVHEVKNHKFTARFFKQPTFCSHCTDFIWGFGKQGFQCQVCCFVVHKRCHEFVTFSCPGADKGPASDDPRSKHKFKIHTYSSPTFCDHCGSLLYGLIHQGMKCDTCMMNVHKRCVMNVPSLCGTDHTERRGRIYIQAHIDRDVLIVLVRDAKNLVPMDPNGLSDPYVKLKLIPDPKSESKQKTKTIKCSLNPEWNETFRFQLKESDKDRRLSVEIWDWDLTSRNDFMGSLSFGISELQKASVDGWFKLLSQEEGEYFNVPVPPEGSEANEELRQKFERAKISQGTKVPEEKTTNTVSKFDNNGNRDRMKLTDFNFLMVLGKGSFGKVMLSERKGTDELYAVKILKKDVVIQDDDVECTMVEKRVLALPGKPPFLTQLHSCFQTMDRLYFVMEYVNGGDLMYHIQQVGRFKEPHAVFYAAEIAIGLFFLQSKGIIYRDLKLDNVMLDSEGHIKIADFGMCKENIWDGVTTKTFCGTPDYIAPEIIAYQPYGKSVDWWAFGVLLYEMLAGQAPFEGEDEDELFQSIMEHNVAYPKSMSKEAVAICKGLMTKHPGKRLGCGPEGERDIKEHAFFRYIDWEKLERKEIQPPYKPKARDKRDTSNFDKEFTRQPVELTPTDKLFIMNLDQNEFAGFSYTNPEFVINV
# T1 sequence (Q04759 whole entry): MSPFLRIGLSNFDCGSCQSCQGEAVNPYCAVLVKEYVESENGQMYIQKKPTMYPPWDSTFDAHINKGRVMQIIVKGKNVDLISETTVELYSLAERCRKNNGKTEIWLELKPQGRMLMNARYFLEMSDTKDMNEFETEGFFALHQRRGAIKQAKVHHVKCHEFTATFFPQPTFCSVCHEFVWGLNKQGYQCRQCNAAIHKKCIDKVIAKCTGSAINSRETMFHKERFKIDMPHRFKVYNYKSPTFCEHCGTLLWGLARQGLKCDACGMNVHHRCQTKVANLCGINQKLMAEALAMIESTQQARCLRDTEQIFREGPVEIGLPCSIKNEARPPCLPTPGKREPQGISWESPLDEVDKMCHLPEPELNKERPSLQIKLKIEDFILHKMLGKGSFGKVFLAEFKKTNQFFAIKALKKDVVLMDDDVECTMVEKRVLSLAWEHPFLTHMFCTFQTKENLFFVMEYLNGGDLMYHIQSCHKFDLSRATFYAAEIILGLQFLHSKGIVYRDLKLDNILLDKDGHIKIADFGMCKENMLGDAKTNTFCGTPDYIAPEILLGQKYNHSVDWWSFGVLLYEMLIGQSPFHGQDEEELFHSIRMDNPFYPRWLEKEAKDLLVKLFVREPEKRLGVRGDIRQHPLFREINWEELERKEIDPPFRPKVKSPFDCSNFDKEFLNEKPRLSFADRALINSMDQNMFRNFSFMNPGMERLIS
# T6 sequence (P24723 whole entry): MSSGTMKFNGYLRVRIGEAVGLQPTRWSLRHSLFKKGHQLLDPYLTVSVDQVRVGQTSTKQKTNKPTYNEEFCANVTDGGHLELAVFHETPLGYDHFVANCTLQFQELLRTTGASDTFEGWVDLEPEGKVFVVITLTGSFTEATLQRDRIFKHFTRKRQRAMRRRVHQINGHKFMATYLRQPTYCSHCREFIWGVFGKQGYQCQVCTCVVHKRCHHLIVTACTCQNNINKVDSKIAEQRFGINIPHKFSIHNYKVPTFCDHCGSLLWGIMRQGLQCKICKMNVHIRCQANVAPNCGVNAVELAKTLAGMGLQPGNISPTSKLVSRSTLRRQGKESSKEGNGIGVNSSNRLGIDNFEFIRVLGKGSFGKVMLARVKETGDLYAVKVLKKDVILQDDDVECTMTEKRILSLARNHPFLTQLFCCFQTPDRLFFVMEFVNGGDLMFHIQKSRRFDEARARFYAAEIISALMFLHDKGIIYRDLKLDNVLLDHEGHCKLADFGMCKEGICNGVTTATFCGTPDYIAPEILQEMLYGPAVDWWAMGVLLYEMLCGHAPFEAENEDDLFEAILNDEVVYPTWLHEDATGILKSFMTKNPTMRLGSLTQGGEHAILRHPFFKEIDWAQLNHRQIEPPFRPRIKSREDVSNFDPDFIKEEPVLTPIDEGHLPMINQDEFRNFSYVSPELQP
smiles,measurement,setting,value
C=C1C[C@H]2C[C@]3(O)O[C@H](C[C@@H](O)CC(=O)O[C@@H](CO)C[C@@H]4C/C(=C\C(=O)OC)[C@H](OC(=O)CCCCCCC)[C@@](O)(O4)C(C)(C)/C=C/[C@@H](C1)O2)C[C@H](OC(C)=O)C3(C)C [SUW133],Ki,[1],2 nM
same,Ki,[2],5.8 nM
same,Ki,[3],5.6 nM
same,Ki,[4],1.8 nM
same,Ki,[5],2 nM
same,Ki,[6],6.4 nM
same,Ki,[7],6.3 nM
same,CD69 expression,[8],upregulates expression
